Reference: patent US10130641B2, “Compositions of vitamin D and methods for their use and manufacture” (priority 2015, dated 2018)

Experiment: Plasma concentration of vitamin D3 in rats after a single oral dose (absorption / bioavailability study)
Type: in vivo, Wistar rats
Conditions: for Cmax / Tmax / AUC: Area Under the plasma conc.-time Curve: rat plasma, 50,000 IU oral; for AUC: Area Under the plasma conc.-time Curve: trapezoid rule; for Mean plasma concentration of vitamin D3: rat, 50,000 IU oral
Procedure: The present study was undertaken to compare the rate of absorption of vitamin D3, from formulated vitamin D3 with tomato seed oil and high-fat meal. The absorption was studied by serial measurements of the plasma concentration of vitamin D3 after ingestion of a pharmacological dose of the vitamin dissolved in the vehicles.
Male Albino Wistar rats were used. Animals were kept under a twelve-hour light/dark cycle. Group I was treated with normal diet and vitamin D3 (50,000 IU). Group II was given Vitamin D3 (50,000 IU) with High-Fat diet. Group III was treated with Vitamin D3 (50,000 IU) formulation in tomato seed oil orally. 10 mL/kg body weight was used for gavage administration. […] Animals were ether anesthetized and blood samples (approximately 0.5 mL) were collected via retro-orbital sinus puncture.
Blood samples were collected in heparinized eppendorf tubes. Tubes were inverted several times to mix and were then placed on ice and centrifuged to separate plasma within 1 h time. After centrifugation, plasma was transferred into storage tubes (0.5 mL), which were stored frozen (approximately −70° C.) until analyzed.
Plasma processing involved liquid-liquid extraction using acetonitrile and methanol (80:20). 100 μL aliquot of plasma was mixed with 1 mL of acetonitrile and methanol. After vortex mixing for 1 min, the sample was centrifuged at 7,000 rpm at 4° C. for 10 min to remove precipitated proteins; the supernatant was transferred to a clean tube and dried under nitrogen at room temperature (approximately 25° C.). After the evaporation was completed, the residue was reconstituted in 100 μL of methanol with 5 min of sonication, added to 400 μL of water, vortex mixed, and centrifuged again. The resulting supernatant was transferred to a sample vial for instrumental analysis.
Chromatography was performed using a Phenomenex C18 […]×4.6 mm, 5 μm column, maintained at a temperature of 35° C. A flow rate of 1 mL/min was used; mobile phase acetonitrile and methanol (80:20); elution gradient program, injection volume 5 μL, detection UV, 280 nm. Total run time was 15 min.
The data was represented in a plasma level-time curve. The area under time curve (AUC) was calculated using Trapezoid rule. The maximum concentration (Cmax) and maximum time (Tmax) were obtained directly from generated data. The maximum plasma concentration (Cmax) and the time to reach Cmax (Tmax) were obtained directly from the plasma concentration-time curve. All values were expressed as mean±standard deviation (SD) except Tmax mentioned as median.

| Compound | Cmax (high-fat diet) | Tmax (high-fat diet) | AUC: Area Under the plasma conc.-time Curve (high-fat diet) | Mean plasma concentration of vitamin D3 (high-fat diet, 0 min) | Mean plasma concentration of vitamin D3 (high-fat diet, 30 min) | Cmax (normal diet) | Tmax (normal diet) | AUC: Area Under the plasma conc.-time Curve (normal diet) | Mean plasma concentration of vitamin D3 (normal diet, 0 min) | Mean plasma concentration of vitamin D3 (normal diet, 30 min) | Mean plasma concentration of vitamin D3 (normal diet, 1 hrs) | Mean plasma concentration of vitamin D3 (normal diet, 2 hrs) | Mean plasma concentration of vitamin D3 (normal diet, 3 hrs) | Mean plasma concentration of vitamin D3 (normal diet, 4 hrs) | Mean plasma concentration of vitamin D3 (normal diet, 6 hrs) | Mean plasma concentration of vitamin D3 (normal diet, 8 hrs) | Mean plasma concentration of vitamin D3 (normal diet, 12 hrs) | Mean plasma concentration of vitamin D3 (normal diet, 24 hrs) | Mean plasma concentration of vitamin D3 (normal diet, 48 hrs) | Mean plasma concentration of vitamin D3 (normal diet, 72 hrs) |
| --- | --- | --- | --- | --- | --- | --- | --- | --- | --- | --- | --- | --- | --- | --- | --- | --- | --- | --- | --- | --- |
| C=C1CC[C@H](O)C/C1=C/C=C1\CCC[C@]2(C)[C@@H]([C@H](C)CCCC(C)C)CC[C@@H]12 [Vitamin D3 + High-Fat Diet, cholecalciferol] | 86090 ± 12140 ng/mL | 12 h | 1595 + 600.6 μg · hr/ml | 0 ng/mL | 0 ng/mL | – | – | – | – | – | – | – | – | – | – | – | – | – | – | – |
| C=C1CC[C@H](O)C/C1=C/C=C1\CCC[C@]2(C)[C@@H]([C@H](C)CCCC(C)C)CC[C@@H]12 [Vitamin D3 + Normal Diet, cholecalciferol] | – | – | – | – | – | 47030 ± 4150 ng/mL | 24 h | 3478 + 1758 μg · hr/ml | 0 ng/mL | 0 ng/mL | 1867 ± 800 ng/mL | 4310 ± 1530 ng/mL | 9870 ± 4140 ng/mL | 12000 ± 4970 ng/mL | 10740 ± 8060 ng/mL | 13590 ± 4160 ng/mL | 16060 ± 3500 ng/mL | 47030 ± 4150 ng/mL | 17940 ± 1330 ng/mL | 1070 ± 350 ng/mL |
